Laboratory results reported in ChEMBL document CHEMBL3638533, “4-carboxybenzylamino derivatives as histone deacetylase inhibitors” (2015).

Molecular target: Histone deacetylase 1 (Homo sapiens, UniProt Q13547)
Experiment: Flag Assay: Novel compounds were tested for their ability to inhibit histone deacetylase, subtype 1 (HDAC1) using an in vitro deacetylation assay. The enzyme source for this assay was an epitope-tagged human HDAC1 complex immuno-purified from stably expressing mammalian cells. The substrate consisted of a commercial product containing an acetylated lysine side chain (BIOMOL Research Laboratories, Inc., Plymouth Meeting, Pa.). Upon deacetylation of the substrate by incubation with the purified HDAC1 complex, a fluorophore is produced that is directly proportional to the level of deacetylation.

Histone deacetylase 1, sequence (Q13547 whole entry): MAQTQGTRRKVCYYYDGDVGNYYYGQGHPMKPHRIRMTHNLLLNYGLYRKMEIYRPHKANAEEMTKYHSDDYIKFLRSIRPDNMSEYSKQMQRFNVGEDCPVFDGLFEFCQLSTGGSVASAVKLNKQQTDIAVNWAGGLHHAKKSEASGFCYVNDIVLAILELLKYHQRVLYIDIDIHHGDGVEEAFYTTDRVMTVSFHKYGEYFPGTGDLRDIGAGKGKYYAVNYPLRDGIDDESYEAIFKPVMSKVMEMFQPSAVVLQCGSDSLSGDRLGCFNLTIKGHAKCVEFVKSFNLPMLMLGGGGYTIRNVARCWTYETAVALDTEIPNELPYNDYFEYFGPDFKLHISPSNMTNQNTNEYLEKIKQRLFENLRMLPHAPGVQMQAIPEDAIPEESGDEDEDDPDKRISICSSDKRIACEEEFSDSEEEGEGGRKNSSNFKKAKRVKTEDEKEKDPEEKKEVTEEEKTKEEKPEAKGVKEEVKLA

O=C(Nc1cc(-c2ccccc2)ccc1O)c1ccc(CNCCc2c[nH]cn2)cc1
IC50: 2500 nM
